Source: patent US12662491B2 (Redona Therapeutics, Inc., priority 2020, dated 2026)

What follows are compounds tested against T1, Zcchc11 enzyme (Homo sapiens, UniProt Q5TAX3) (assay: TUTase assay (Zcchc11 assay, Lin28a-dependent polyuridylation of pre-let-7)). Settings: LIN28A 10 nM, Zcchc11 0.2 nM, 5′-fluorescein pre-let-7 miRNA 2 nM, UTP 5 uM, room temperature, 30 minutes pre-incubation; read-out: Potency Lin28a-dep Z11 IC50.
T1 construct: made in house; host or cells: HEK293 cells (Zcchc11); E. coli Rosetta II (LIN28A)
T1 sequence (Q5TAX3 212-1420): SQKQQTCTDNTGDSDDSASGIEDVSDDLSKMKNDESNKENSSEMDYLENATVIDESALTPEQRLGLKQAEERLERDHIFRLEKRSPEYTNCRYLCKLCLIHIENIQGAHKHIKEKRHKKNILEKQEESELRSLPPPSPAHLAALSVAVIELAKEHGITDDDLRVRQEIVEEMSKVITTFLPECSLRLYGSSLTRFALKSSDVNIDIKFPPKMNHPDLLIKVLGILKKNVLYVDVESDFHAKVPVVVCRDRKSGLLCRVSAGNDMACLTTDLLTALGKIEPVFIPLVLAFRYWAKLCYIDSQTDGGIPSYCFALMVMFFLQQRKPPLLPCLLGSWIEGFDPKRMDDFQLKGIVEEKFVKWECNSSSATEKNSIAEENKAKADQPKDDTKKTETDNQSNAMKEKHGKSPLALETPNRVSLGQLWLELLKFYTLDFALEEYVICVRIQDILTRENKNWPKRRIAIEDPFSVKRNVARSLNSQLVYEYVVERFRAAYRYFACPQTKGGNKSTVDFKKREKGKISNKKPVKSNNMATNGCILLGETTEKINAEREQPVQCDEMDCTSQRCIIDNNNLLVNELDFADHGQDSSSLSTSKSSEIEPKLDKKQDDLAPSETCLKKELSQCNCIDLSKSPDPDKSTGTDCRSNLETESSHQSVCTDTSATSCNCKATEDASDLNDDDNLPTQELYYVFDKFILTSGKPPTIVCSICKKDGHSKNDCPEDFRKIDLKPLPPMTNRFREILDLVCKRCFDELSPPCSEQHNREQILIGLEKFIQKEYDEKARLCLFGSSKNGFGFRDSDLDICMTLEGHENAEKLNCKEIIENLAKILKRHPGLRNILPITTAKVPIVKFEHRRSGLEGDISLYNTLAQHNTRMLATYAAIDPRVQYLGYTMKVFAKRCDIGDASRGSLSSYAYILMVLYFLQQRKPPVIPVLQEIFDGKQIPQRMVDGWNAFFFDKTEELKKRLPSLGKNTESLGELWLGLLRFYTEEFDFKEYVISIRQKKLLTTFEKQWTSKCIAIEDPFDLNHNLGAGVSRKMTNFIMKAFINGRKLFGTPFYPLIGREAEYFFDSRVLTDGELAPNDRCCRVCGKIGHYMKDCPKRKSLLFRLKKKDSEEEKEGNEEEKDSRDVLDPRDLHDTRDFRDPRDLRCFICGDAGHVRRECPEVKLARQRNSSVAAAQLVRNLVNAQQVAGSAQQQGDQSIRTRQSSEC
Format: biochemical
Method in brief: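 HEK293-expressed human Zcchc11 (residues 212-1420, 0.2 nM) with 10 nM LIN28A and 2 nM 5′-fluorescein pre-let-7, preincubated 30 min at room temperature, pH 7.3. Started with 5 uM UTP; poly(U) tails quenched by 3′-rhodamine A20 probe, read kinetically. IC50 from early-rate four-parameter fit; no-UTP wells define 0%.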

Row | IC50 [µM] | SMILES
1 | ≤ 1 | NC1CN(c2ccc(-n3cc(C(=O)O)c(=O)c4cc(Cl)c(N5CCC[C@@H]5COc5ncccc5Cl)cc43)cn2)C1 [Example 28, (R)-1-(6-(3-aminoazetidin-1-yl)pyridin-3-yl)-6-chloro-7-(2-(((3-chloropyridin-2-yl)oxy)methyl)pyrrolidin-1-yl)-4-oxo-1,4-dihydroquinoline-3-carboxylic acid]

Same assay, conditions: Lin28a-dependent Zcchc11 (Z11) TUTase activity; read-out: Potency Lin28a-dep Z11 IC50

Row | IC50 [µM] | SMILES
2 | ≤ 1 | CN(C)C1CN(c2ccc(-n3cc(C(=O)O)c(=O)c4cc(Cl)c(N5[C@@H](COc6nc(N)ccc6Cl)C[C@H]6C[C@H]65)cc43)cn2)C1 [Compound 339, 7-[(3R)-3-{[(6 Amino-3-chloropyridin-2-yl)oxy]methyl}-2-azabicyclo [3.1.0]hexan-2-yl]-6-chloro-1-{6-[3-(dimethyl-amino)azetidin-1-yl]pyridin-3-yl}-4-oxoquinoline-3-carboxylic acid]
3 | ≤ 1 | O=C(O)c1cn(-c2ccc(Cl)cc2)c2cc(N3CCC[C@@H]3COc3ccccn3)c(F)cc2c1=O [Compound 145, (R)-1-(4-chlorophenyl)-6-fluoro-4-oxo-7-(2-((pyridin-2-yloxy)methyl)pyrrolidin-1-yl)-1,4-dihydro-quinoline-3-carboxylic acid]
4 | ≤ 1 | CN(C)C1CN(c2ccc(-n3cc(C(=O)O)c(=O)c4cc(Cl)c(N5CC(c6cccnn6)C[C@@H]5COc5ncccc5Cl)cc43)cn2)C1 (mixture of isomers) [Compound 307, rac-6-chloro-7-((2R)-2-(((3-chloropyridin-2-yl)oxy)methyl)-4-(pyridazin-3-yl)pyrrolidin-1-yl)-1-(6-(3-(dimethyl-amino)azetidin-1-yl)pyridin-3-yl)-4-oxo-1,4-dihydro-quinoline-3-carboxylic acid]
5 | ≤ 1 | Cc1cccc(-n2cc(C(=O)O)c(=O)c3cc(F)c(N4CCC[C@@H]4COc4ccccn4)cc32)c1 [Compound 155, (R)-6-fluoro-4-oxo-7-(2-((pyridin-2-yloxy)methyl)pyrrolidin-1-yl)-1-(m-tolyl)-1,4-dihydro-quinoline-3-carboxylic acid]
6 | ≤ 1 | CN(C)C1CN(c2ccc(-n3cc(C(=O)O)c(=O)c4cc(Cl)c(N5CCC(C)(C)[C@@H]5COc5ncccc5Cl)cc43)cn2)C1 [Compound 351, (R)-6-chloro-7-(2-(((3-chloropyridin-2-yl)oxy)methyl)-3,3-dimethyl-pyrrolidin-1-yl)-1-(6-(3-(dimethyl-amino)azetidin-1-yl)pyridin-3-yl)-4-oxo-1,4-dihydro-quinoline-3-carboxylic acid]
7 | ≤ 1 | CN(C)C1CN(c2ccc(-n3cc(C(=O)O)c(=O)c4cc(Cl)c(N5CC(C6CC6)C[C@@H]5COc5ncccc5Cl)cc43)cn2)C1 (stereo partly drawn) [Compound 349, 6-chloro-7-((2R)-2-(((3-chloropyridin-2-yl)oxy)methyl)-4-cyclopropyl-pyrrolidin-1-yl)-1-(6-(3-(dimethyl-amino)azetidin-1-yl)pyridin-3-yl)-4-oxo-1,4-dihydro-quinoline-3-carboxylic acid]
8 | ≤ 1 | CO/N=C1\C[C@H](COc2nc(OC)ccc2Cl)N(c2cc3c(cc2Cl)c(=O)c(C(=O)O)cn3-c2ccc(N3CC(N(C)C)C3)nc2)C1 [Compound 200, (R,E)-6-chloro-7-(2-(((3-chloro-6-methoxy-pyridin-2-yl)oxy)methyl)-4-(methoxyimino)pyrrolidin-1-yl)-1-(6-(3-(dimethyl-amino)azetidin-1-yl)pyridin-3-yl)-4-oxo-1,4-dihydro-quinoline-3-carboxylic acid]

Same assay, conditions: Lin28a-dependent Zcchc11 (Z11) TUTase assay; read-out: Potency Lin28a-dep Z11 IC50

Row | IC50 [µM] | SMILES
9 | 1 to 10 | O=C(O)c1cn(C2(c3ccccc3)CC2)c2cc(N3CCC[C@@H]3COc3ncccc3Cl)c(Cl)cc2c1=O [Example 588, (R)-6-chloro-7-(2-(((3-chloropyridin-2-yl)oxy)methyl)pyrrolidin-1-yl)-4-oxo-1-(1-phenylcyclo-propyl)-1,4-dihydroquinoline-3-carboxylic acid]
10 | ≤ 1 | COc1ccc(Cl)c(OC[C@H]2CCCN2c2cc3c(cc2C(F)(F)F)c(=O)c(C(=O)O)cn3-c2ccc(N3CC(N(C)C)C3)nc2)n1 [Example 659, (R)-7-(2-(((3-chloro-6-methoxypyridin-2-yl)oxy)methyl)pyrrolidin-1-yl)-1-(6-(3-(dimethylamino)azetidin-1-yl)pyridin-3-yl)-4-oxo-6-(trifluoromethyl)-1,4-dihydroquinoline-3-carboxylic acid]
11 | ≤ 1 | Nc1ccc(-n2cc(C(=O)O)c(=O)c3cc(Br)c(N4CCC[C@@H]4COc4ncccc4Cl)cc32)cn1 [Example 509, 1-(6-aminopyridin-3-yl)-6-bromo-7-[(2R)-2-{[(3-chloropyridin-2-yl)oxy]methyl}pyrrolidin-1-yl]-4-oxo-1,4-dihydroquinoline-3-carboxylic acid]
12 | ≤ 1 | CN(C)C1CN(c2ccc(-n3cc(C(=O)O)c(=O)c4cc(F)c(N5CCC[C@]5(C)COc5ncccc5Cl)nc43)cn2)C1 [Example 620, (R)-7-(2-(((3-chloropyridin-2-yl)oxy)methyl)-2-methylpyrrolidin-1-yl)-1-(6-(3-(dimethylamino)azetidin-1-yl)pyridin-3-yl)-6-fluoro-4-oxo-1,4-dihydro-1,8-naphthyridine-3-carboxylic acid]
13 | ≤ 1 | CN(CCN1CCC1)c1ccc(-n2cc(C(=O)O)c(=O)c3cc(Cl)c(N4CCC[C@@H]4COc4ncccc4Cl)cc32)cn1 [Example 601, (R)-1-(6-((2-(azetidin-1-yl)ethyl)(methyl)amino)pyridin-3-yl)-6-chloro-7-(2-(((3-chloropyridin-2-yl)oxy)methyl)pyrrolidin-1-yl)-4-oxo-1,4-dihydroquinoline-3-carboxylic acid]
14 | ≤ 1 | CN(C)C1CN(c2ccc(-n3cc(C(=O)O)c(=O)c4cc(Cl)c(N5CCC6CC65COc5ncccc5Cl)cc43)cn2)C1 (stereo not shown) [Example 635, 6-chloro-7-(1-(((3-chloropyridin-2-yl)oxy)methyl)-2-azabicyclo[3.1.0]hexan-2-yl)-1-(6-(3-(dimethylamino)azetidin-1-yl)pyridin-3-yl)-4-oxo-1,4-dihydroquinoline-3-carboxylic acid]
15 | 1 to 10 | O=C(O)c1cn(-c2cn[nH]c2)c2cc(N3CCC[C@@H]3COc3ncccc3Cl)c(Cl)cc2c1=O [Example 434, (R)-6-chloro-7-(2-(((3-chloropyridin-2-yl)oxy)methyl)pyrrolidin-1-yl)-4-oxo-1-(1H-pyrazol-4-yl)-1,4-dihydroquinoline-3-carboxylic acid]
16 | ≤ 1 | O=C(O)c1cn(-c2ncc[nH]2)c2cc(N3CCC[C@@H]3COc3ncccc3Cl)c(Cl)cc2c1=O [Example 560, (R)-6-chloro-7-(2-(((3-chloropyridin-2-yl)oxy)methyl)pyrrolidin-1-yl)-1-(1H-imidazol-2-yl)-4-oxo-1,4-dihydroquinoline-3-carboxylic acid]
17 | ≤ 1 | O=C(O)c1cn(-c2cnccn2)c2cc(N3C[C@@H](F)C[C@H]3COc3ncccc3Cl)c(Cl)cc2c1=O [Example 519, 6-chloro-7-((2S,4S)-2-(((3-chloropyridin-2-yl)oxy)methyl)-4-fluoropyrrolidin-1-yl)-4-oxo-1-(pyrazin-2-yl)-1,4-dihydroquinoline-3-carboxylic acid]
18 | ≤ 1 | CN(C)C1CN(c2ccc(-n3cc(C(=O)O)c(=O)c4cc(Cl)c(N5CCC[C@@H]5COc5nc(OC6CC6)ccc5Cl)cc43)cn2)C1 [Example 624, (R)-6-chloro-7-(2-(((3-chloro-6-cyclopropoxy-pyridin-2-yl)oxy)methyl)pyrrolidin-1-yl)-1-(6-(3-(dimethylamino)azetidin-1-yl)pyridin-3-yl)-4-oxo-1,4-dihydroquinoline-3-carboxylic acid]
19 | 1 to 10 | CN(C)C1CN(c2ccc(-n3cc(C(=O)O)c(=O)c4cc(Cl)c(N5CCC[C@@H]5C[S+]([O-])c5ncccc5Cl)cc43)cn2)C1 (stereo partly drawn) [Example 610, 6-chloro-7-((2R)-2-(((3-chloropyridin-2-yl)sulfinyl)methyl)pyrrolidin-1-yl)-1-(6-(3-(dimethylamino)azetidin-1-yl)pyridin-3-yl)-4-oxo-1,4-dihydroquinoline-3-carboxylic acid]
